Laboratory results reported in US20250302799A1, “PHARMACEUTICAL COMPOSITION CONTAINING FRAXETIN FOR PREVENTION OR TREATMENT OF ENDOMETRIOSIS” (Research & Business Foundation Sungkyunkwan University, priority 2024, published 2025).

How the values were obtained:
Type in all cases: cell-based, human
[1] = test system: End1/E6E7 cells; assay: BrdU cell proliferation assay; conditions: End1/E6E7, all concentrations (5-100 μM), 48 hours
Protocol: (§1) To examine the effects of fraxetin on cell proliferation, the inventors performed a BrdU cell proliferation assay.
(§2) First, 5×10^3 cells of VK2/E6E7, End1/E6E7, and T-HESC were each distributed in 100 μL of medium in 96-well plates.
(§3) Fraxetin was then administered in a dose-dependent manner (0μM, 5 μM, 10 μM, 20 uM, 50 μM, 100 uM) and cultured for 48 hours, followed by the BrdU assay using a BrdU kit (Cat No: 1167229001, Roche) according to the manufacturer's instructions.
(§4) After 48 hours of incubation, 10 μM BrdU (Bromodeoxyuridine) was added to each well and incubated at 37° C. in a 5% CO2 incubator for 2 hours. The cells were then fixed, reacted with anti-BrdU-POD solution at room temperature for 90 minutes, and washed three times. Finally, 100 μL of 3, 3′, 5, 5′-tetramethylbenzidine substrate was added, and absorbance was measured at wavelengths of 370 nm and 492 nm to analyze cell proliferation.

[2] = test system: VK2/E6E7 cells; assay: BrdU cell proliferation assay; conditions: VK2/E6E7, 100 μM, 48 hours
Protocol: as §1, §2, §3, §4

[3] = test system: End1/E6E7 cells; assay: Apoptosis by Annexin V and propidium iodide staining
Protocol: (§5) To assess the apoptosis-inducing effect of fraxetin in endometrial cells, the inventors used a FITC Annexin V Apoptosis Detection Kit I (BD Sciences).
(§6) First, VK2/E6E7 and End1/E6E7 cells were cultured in 6-well plates, treated with fraxetin in a dose-dependent manner (0 μM, […], 10 μM, 20 µM, 50 μM, 100 μM), and incubated for 48 hours at 37° C. in a 5% CO2 incubator. The cells were then detached using trypsin, washed with PBS, and mixed slowly with 1 mL of 1X binding buffer. After centrifugation, the cell pellet was resuspended in 200 μL of 1X binding buffer. The suspension (100 μL) was transferred to a 1.5 mL brown tube, and 5 μL of Annexin V and PI (propidium iodide) were added, followed by staining at room temperature for 15 minutes. After adding 400 μL of 1X binding buffer, the stained solution was transferred to a 5 mL FACS tube, and the number of apoptotic cells was measured by analyzing fluorescence intensity using flow cytometry.

[4] = test system: VK2/E6E7 cells; assay: as above
Protocol: as §5, §6

[5] = test system: normal endometrial stromal cell line T-HESC; assay: BrdU cell proliferation assay, normal cells; conditions: 48 hours
Protocol: as §1, §2, §3, §4

[6] = test system: End1/E6E7 cells; assay: Western blot analysis of protein expression and phosphorylation
Protocol: (§7) To analyze protein expression related to the development of endometriosis following fraxetin treatment, the inventors conducted western blot analysis.
(§8) Briefly, endometrial cells were treated with fraxetin in a dose-dependent manner or in combination with signaling pathway inhibitors. Total proteins were extracted from the treated cells, and protein quantification was performed using the Bradford protein assay (Bio-Rad, Hercules, CA, USA). The extracted proteins were then denatured at 95° C. for 5 minutes and subjected to electrophoresis on a 10% SDS/PAGE gel before being transferred to a nitrocellulose membrane. The membrane was subsequently incubated with primary and secondary antibodies, and target protein expression was analyzed using chemiluminescence detection reagents (Supersignal West Pico, Pierce, Rockford, IL, USA) with the ChemiDoc EQ system and Quantity One software (Bio-Rad).

[7] = test system: VK2/E6E7 cells; assay: as above
Protocol: as §7, §8

[8] = test system: End1/E6E7 cells; assay: Mitochondrial membrane potential by JC-1 staining; conditions: End1/E6E7
Protocol: To examine changes in mitochondrial membrane potential (MMP) in endometrial cells induced by fraxetin, the inventors used a mitochondria staining kit (Cat no: CS0390, Sigma-Aldrich) to measure MMP.
In brief, End1/E6E7 and […] endometrial cell lines were cultured in 6-well plates, treated with fraxetin in a dose-dependent manner (0 μM, 5 μM, 10 μM, 20 μM, 50 μM, 100 μM), and incubated at 37° C. in a 5% CO2 incubator for 48 hours. Afterward, the cells were detached using trypsin, centrifuged to obtain cell pellets, resuspended in JC-1 staining solution, and incubated at 37° C. in a 5% CO2 incubator for 20 minutes. The stained cells were centrifuged again, washed with 1X JC-1 staining buffer, and analyzed using flow cytometry to assess changes in mitochondrial membrane potential.

[9] = test system: End1/E6E7 cells; assay: Mitochondrial calcium concentration (rhod-2 staining)
Protocol: (§9) To examine intracellular or mitochondrial calcium concentration changes in endometrial cells induced by fraxetin, the inventors conducted experiments using 3 μM fluo-4 acetoxymethyl ester (AM) (Invitrogen) and 3 μM rhod-2.
(§10) First, cells were cultured in 6-well plates, treated with fraxetin in a dose-dependent manner (0 μM, 5 μM, 10 μM, 20 μM, 50 μM, 100 μM), and incubated at 37° C. in a 5% CO2 incubator for 48 hours. The cells were then detached using trypsin, washed with PBS, and stained with 3 μM fluo-4 or 3 μM rhod-2 for 20 minutes at 37° C. in a 5% CO2 incubator. After staining, the cells were washed with PBS, transferred to FACS tubes, and analyzed by flow cytometry to measure intracellular or mitochondrial calcium concentrations.

[10] = test system: VK2/E6E7 cells; assay: as above
Protocol: as §9, §10

[11] = test system: endometrial cells; assay: Western blot analysis (cell line not stated)
Protocol: as §7, §8

COc1cc2ccc(=O)oc2c(O)c1O [fraxetin]
cell proliferation (remaining) [1]: below 50% | reduction of cell proliferation [2]: approximately 40% | early and late apoptosis cell populations ([3]; End1/E6E7, Example 6): tended to increase | early and late apoptosis ([3]; End1/E6E7, Example 7 comparison fraxetin vs dienogest): induced both early and late apoptosis | early and late apoptosis cell populations ([4]; VK2/E6E7, Example 6): tended to increase | early and late apoptosis ([4]; VK2/E6E7, Example 7 comparison fraxetin vs dienogest): induced both early and late apoptosis | cell proliferation in normal endometrial cells [5]: no changes | reduction of S6 phosphorylation ([6]; 20 μM fraxetin, End1/E6E7): 59% | ERK1/2 phosphorylation ([6]; 50 μM fraxetin, End1/E6E7): 0.51 fold | p38 phosphorylation compared to control ([6]; 50 μM fraxetin, first value, End1/E6E7 assumed): 0.61 fold | IRE1α expression ([6]; End1/E6E7): 1.7 fold | expression of anti-apoptotic protein Bcl-xL ([6]; End1/E6E7): reduced | inhibition of AKT phosphorylation compared to control ([6]; End1/E6E7): 57% | pro-apoptotic protein BAK ([6]; End1/E6E7): increased | pro-apoptotic protein BAX ([6]; End1/E6E7): increased | ERK1/2 phosphorylation ([7]; 50 μM fraxetin, VK2/E6E7): 0.61 fold | p38 phosphorylation compared to control ([7]; 50 μM fraxetin, second value, VK2/E6E7 assumed): 0.47 fold | IRE1α expression ([7]; VK2/E6E7): 0.53 fold | expression of anti-apoptotic protein Bcl-xL ([7]; VK2/E6E7): reduced | pro-apoptotic protein BAK ([7]; VK2/E6E7): increased | pro-apoptotic protein BAX ([7]; VK2/E6E7): increased | relative membrane potential loss rate increase [8]: 1.8 fold | mitochondrial calcium ion levels ([9]; 20 μM fraxetin, first value, End1/E6E7 assumed): 1.7 fold | mitochondrial calcium ion levels ([9]; 50 μM fraxetin): slight increase | mitochondrial calcium ion levels ([10]; 20 μM fraxetin, second value, VK2/E6E7 assumed): 2.4 fold | mitochondrial calcium ion levels ([10]; 50 μM fraxetin): slight increase | level of GRP78 compared to control ([11]; 20 μM and 50 μM fraxetin): 1.9 fold | JNK phosphorylation (remaining) ([11]; 50 μM fraxetin): below 50% | eIF2α phosphorylation ([11]; fraxetin-treated): tended to increase
